Target: IDO1 (Homo sapiens, UniProt P14902)
Test: IDO1 Cellular Assay in Hela Cells Stimulated with IFNγ
Format: cell-based
Conditions: IFNγ 100 ng/mL, 300 uM L-tryptophan, about 48 hours, fluorescence readout, read-out: IDO1 HELA Cell Assay, IC50
Method: Biological Assays IDO1 Cellular Assay in Hela Cells Stimulated with IFNγ
Hela cells were cultured in complete Hela culture medium ([…], 10% heat-inactivated fetal bovine serum) and expanded to about 1×10^9 cells. The cells were then collected and frozen down at 10×10^6 cells/vial in 1 mL frozen medium (90% complete Hela culture medium, 10% DMSO).
Compounds to be tested were serially diluted in ten 3-fold steps in DMSO starting from 10 mM DMSO stocks in Echo low volume plate(s). Compound dilutions or DMSO alone were then dispensed from the dilution plate(s) into Greiner black 384-well assay plate(s) (catalog #781086, 50 nL/well) using an Echo 550 acoustic liquid handler (Labcyte).
Frozen Hela cells were thawed and transferred into Hela assay medium (99% complete Hela culture medium, 1% Pen/Strep) with 20 mL medium/vial of cells. The cells were spun down at 250 g in a table top centrifuge for 5 min and suspended in same volume of Hela assay medium. […] Sterile L-tryptophan were added to the cells with final concentration of 300 uM L-tryptophan. A small aliquot (2 mL/plate) of Hela cells were set aside and were not treated with IFNγ, to serve as the Max-E control. The rest of Hela cells were added with sterile IFNγ (Cat #285-IF, R & D systems) with a final concentration of 100 ng/mL.
Hela cells with and without IFNγ were dispensed to the respective wells of 384-well assay plates containing the compounds. The plates were incubated for about 48 hours at a 37° C., 5% CO2 incubator. Afterwards, 12 μL of 0.5 M methyl isonipecotate in dimethyl sulfoxide were added into each well and the plates were sealed and incubated at 37° C. without CO2 overnight. The plates were centrifuged for 1 min at 200×g. The resulting fluorescence was measured in a Spectramax plate reader (Molecular Devices) with a 400 nm excitation filter and a 510 nm emission filter.
Potencies were calculated by […] least squares fit to the four parameter logistic IC50 equation.

IDO1, sequence (P14902 whole entry): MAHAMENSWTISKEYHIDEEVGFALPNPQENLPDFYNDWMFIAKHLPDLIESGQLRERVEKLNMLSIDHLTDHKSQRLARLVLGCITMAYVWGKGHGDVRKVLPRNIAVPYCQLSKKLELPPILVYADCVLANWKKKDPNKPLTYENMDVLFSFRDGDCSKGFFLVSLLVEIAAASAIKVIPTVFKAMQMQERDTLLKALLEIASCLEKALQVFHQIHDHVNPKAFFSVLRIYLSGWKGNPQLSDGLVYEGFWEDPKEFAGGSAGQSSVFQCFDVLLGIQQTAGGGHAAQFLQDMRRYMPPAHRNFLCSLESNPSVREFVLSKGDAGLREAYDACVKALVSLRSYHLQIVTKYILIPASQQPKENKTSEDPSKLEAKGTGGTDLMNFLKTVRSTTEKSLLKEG

| SMILES | IC50 |
| --- | --- |
| CC(C(=O)Nc1ccc(Cl)cc1)C12CC(NC(=O)c3cccc(C#N)c3)(C1)C2 (single isomer, unassigned) [Example 13, N-(3-(1-((4-chlorophenyl)amino)-1-oxopropan-2-yl)bicyclo[1.1.1]pentan-1-yl)-3-cyanobenzamide] | 133 nM |
| CC(C(=O)Nc1ccc(Cl)nc1)C12CC(NC(=O)c3cccc(Cl)c3)(C1)C2 (single isomer, unassigned) [Example 16, 3-chloro-N-(3-(1-((6-chloropyridin-3-yl)amino)-1-oxopropan-2-yl)bicyclo[1.1.1]pentan-1-yl)benzamide] | 183 nM |
| CC(C(=O)Nc1ccc(Cl)cc1)C12CC(NC(=O)OC3CC3)(C1)C2 (single isomer, unassigned) [Example 19, Cyclopropyl (3-(1-((4-chlorophenyl)amino)-1-oxopropan-2-yl)bicyclo [1.1.1]pentan-1-yl) carbamate] | 564 nM |
| CC(NC(=O)c1ccc(F)cc1)C12CC(NC(=O)c3ccc(Cl)c(Cl)c3)(C1)C2 (single isomer, unassigned) [Example 21, 3,4-Dichloro-N-(3-(1-(4-fluorobenzamido)ethyl)bicyclo [1.1.1]pentan-1-yl) Benzamide] | 908 nM |
| C[C@@H](C(=O)Nc1ccc(F)cc1)C12CC(NC(=O)OC(C)(C)C)(C1)C2 (single isomer, unassigned) [Example 31] | > 10000 nM |
| C[C@H](C(=O)Nc1ccc(F)cc1)C12CC(NC(=O)OC(C)(C)C)(C1)C2 (single isomer, unassigned) [Example 32] | 115 nM |
| O=C(NC12CC(C3(NC(=O)c4ccc(F)cc4)CC3)(C1)C2)OCc1ccccc1 [Example 23, Benzyl (3-(1-(4-fluorobenzamido)cyclopropyl)bicyclo[1.1.1]pentan-1-yl)carbamate] | 107 nM |
| O=C(NC1(C23CC(NC(=O)c4ccc(C(F)(F)F)cn4)(C2)C3)CC1)c1ccc(F)cc1 [Example 26, N-(3-(1-(4-fluorobenzamido)cyclopropyl)bicyclo[1.1.1]pentan-1-yl)-5-(trifluoromethyl)picolinamide] | 377 nM |
| O=C(NC1(C23CC(NC(=O)c4cc(C(F)F)ccn4)(C2)C3)CC1)c1ccc(F)cc1 [Example 27, 4-(difluoromethyl)-N-(3-(1-(4-fluorobenzamido)cyclopropyl)bicyclo[1.1.1]pentan-1-yl)picolinamide] | 104 nM |
| O=C(NC1(C23CC(NC(=O)c4nc(C5CC5)no4)(C2)C3)CC1)c1ccc(F)cc1 [Example 29, 3-cyclopropyl-N-(3-(1-(4-fluorobenzamido)cyclopropyl)bicyclo[1.1.1]pentan-1-yl)-1,2,4-oxadiazole-5-carboxamide] | 276 nM |
| C[C@@H](C(=O)Nc1ccc(F)cc1)C12CC(NC(=O)c3cccc(Cl)n3)(C1)C2 [Example 33, (R)-6-Chloro-N-(3-(1-((4-fluorophenyl)amino)-1-oxopropan-2-yl)bicyclo[1.1.1]pentan-1-yl)picolinamide] | 7180 nM |
| C[C@@H](C(=O)Nc1ccc(F)cc1)C12CC(NC(=O)c3ccc(F)c(Cl)c3)(C1)C2 [Example 35, 3-chloro-4-fluoro-N-[3-[(1R)-2-(4-fluoroanilino)-1-methyl-2-oxo-ethyl]-1-bicyclo[1.1.1]pentanyl]benzamide] | 122 nM |
| Cc1cc(C(=O)NC23CC([C@@H](C)C(=O)Nc4ccc(F)cc4)(C2)C3)ccc1Cl [Example 37, 4-chloro-N-[3-[(1R)-2-(4-fluoroanilino)-1-methyl-2-oxo-ethyl]-1-bicyclo[1.1.l]pentanyl]-3-methyl-benzamide] | 135 nM |
| Cc1cc(C(=O)NC23CC([C@@H](C)C(=O)Nc4ccc(F)cc4)(C2)C3)ccc1F [Example 39, 4-fluoro-N-[3-[(1R)-2-(4-fluoroanilino)-1-methyl-2-oxo-ethyl]-1-bicyclo[1.1.l]pentanyl]-3-methyl-benzamide] | 201 nM |

These reach a lower IC50. Values come first.

| IC50 | SMILES |
| --- | --- |
| 38.6 nM | CC(C(=O)Nc1ccc(Cl)cc1)C12CC(NC(=O)c3cccc(Cl)c3)(C1)C2 (single isomer, unassigned) [Example 6, 3-Chloro-N-(3-(1-((4-chlorophenyl)amino)-1-oxopropan-2-yl)bicyclo [1.1.1]pentan-1-yl) Benzamide] |
| 36.4 nM | CC(C(=O)Nc1ccc(Cl)c(F)c1)C12CC(NC(=O)c3cccc(Cl)c3)(C1)C2 (single isomer, unassigned) [Example 10, 3-chloro-N-(3-(1-((4-chloro-3-fluorophenyl)amino)-1-oxopropan-2-yl)bicyclo[1.1.1]pentan-1-yl)benzamide] |
| 97.9 nM | CC(C(=O)Nc1ccc(Cl)cc1)C12CC(NC(=O)c3cccc(C#N)c3)(C1)C2 (single isomer, unassigned) [Example 12, N-(3-(1-((4-chlorophenyl)amino)-1-oxopropan-2-yl)bicyclo[1.1.1]pentan-1-yl)-3-cyanobenzamide] |
| 29.2 nM | CC(C(=O)Nc1ccc(Cl)cc1)C12CC(NC(=O)OC3CC3)(C1)C2 (single isomer, unassigned) [Example 20, Cyclopropyl (3-(1-((4-chlorophenyl)amino)-1-oxopropan-2-yl)bicyclo [1.1.1]pentan-1-yl) carbamate] |
| 28.7 nM | CC(NC(=O)c1ccc(F)cc1)C12CC(NC(=O)c3ccc(Cl)c(Cl)c3)(C1)C2 (single isomer, unassigned) [Example 22, 3,4-Dichloro-N-(3-(1-(4-fluorobenzamido)ethyl)bicyclo [1.1.1]pentan-1-yl) Benzamide] |
| 6.29 nM | O=C(NC12CC(C3(C(=O)Nc4ccc(F)cc4)CCC3)(C1)C2)c1cccc(Cl)c1 [Example 3, 3-Chloro-N-(3-(1-((4-fluorophenyl)carbamoyl)cyclobutyl)bicyclo [1.1.1]pentan-1-yl) Benzamide] |
| 47.8 nM | N#Cc1cccc(C(=O)NC23CC(C4(C(=O)Nc5ccc(F)cc5)CCC4)(C2)C3)c1 [Example 4, 3-cyano-N-(3-(1-((4-fluorophenyl)carbamoyl)cyclobutyl)bicyclo[1.1.1]pentan-1-yl)benzamide] |
| 2.91 nM | CC(C(=O)Nc1ccc(Cl)nc1)C12CC(NC(=O)c3ccc4c(c3)CC4)(C1)C2 (centres unmarked) [Example 18, N-(3-(1-((6-chloropyridin-3-yl)amino)-1-oxopropan-2-yl)bicyclo[1.1.1]pentan-1-yl)bicyclo[4.2.0]octa-1(6),2,4-triene-3-carboxamide] |
| 83.2 nM | O=C(NC1(C23CC(NC(=O)c4ccc(Cl)cn4)(C2)C3)CC1)c1ccc(F)cc1 [Example 25, 5-chloro-N-(3-(1-(4-fluorobenzamido)cyclopropyl)bicyclo[1.1.1]pentan-1-yl)picolinamide] |
| 72.2 nM | Cc1noc(C(=O)NC23CC(C4(NC(=O)c5ccc(F)cc5)CC4)(C2)C3)n1 [Example 28, N-(3-(1-(4-fluorobenzamido)cyclopropyl)bicyclo[1.1.1]pentan-1-yl)-3-methyl-1,2,4-oxadiazole-5-carboxamide] |
| 47.7 nM | Cc1nc(C(=O)NC23CC(C4(NC(=O)c5ccc(F)cc5)CC4)(C2)C3)no1 [Example 30, N-(3-(1-(4-fluorobenzamido)cyclopropyl)bicyclo[1.1.1]pentan-1-yl)-5-methyl-1,2,4-oxadiazole-3-carboxamide] |
| 2 nM | C[C@@H](C(=O)Nc1ccc(F)cc1)C12CC(NC(=O)c3cccc(Cl)c3F)(C1)C2 [Example 38, 3-chloro-2-fluoro-N-[3-[(1R)-2-(4-fluoroanilino)-1-methyl-2-oxo-ethyl]-1-bicyclo[1.1.1]pentanyl]benzamide] |

Reference: patent US11478461B2, “[1.1.1] bicyclo compounds as indoleamine 2,3-dioxygenase inhibitors” (Merck Sharp & Dohme Corp., priority 2018, dated 2022)
